For the test, the target named is human TLR2 (Homo sapiens, UniProt O60603). Kind of test: Reporter gene assay: HEK 293 cells stably transfected with human TLR2 and NF-kB-driven luciferase reporter. As to conditions: for Emax: HEK293, 7 h, read-out: Hek-TLR2 (% Eff); for EC50: Hek-TLR2 μM (EC50), HEK 293 stably transfected with human TLR2 and pNifty-Luciferase, 7 hours incubation, concentration giving 50% of maximal signal. Background: A reporter such as luciferase makes a cellular process visible.
Chain of human TLR2 (O60603 21-784): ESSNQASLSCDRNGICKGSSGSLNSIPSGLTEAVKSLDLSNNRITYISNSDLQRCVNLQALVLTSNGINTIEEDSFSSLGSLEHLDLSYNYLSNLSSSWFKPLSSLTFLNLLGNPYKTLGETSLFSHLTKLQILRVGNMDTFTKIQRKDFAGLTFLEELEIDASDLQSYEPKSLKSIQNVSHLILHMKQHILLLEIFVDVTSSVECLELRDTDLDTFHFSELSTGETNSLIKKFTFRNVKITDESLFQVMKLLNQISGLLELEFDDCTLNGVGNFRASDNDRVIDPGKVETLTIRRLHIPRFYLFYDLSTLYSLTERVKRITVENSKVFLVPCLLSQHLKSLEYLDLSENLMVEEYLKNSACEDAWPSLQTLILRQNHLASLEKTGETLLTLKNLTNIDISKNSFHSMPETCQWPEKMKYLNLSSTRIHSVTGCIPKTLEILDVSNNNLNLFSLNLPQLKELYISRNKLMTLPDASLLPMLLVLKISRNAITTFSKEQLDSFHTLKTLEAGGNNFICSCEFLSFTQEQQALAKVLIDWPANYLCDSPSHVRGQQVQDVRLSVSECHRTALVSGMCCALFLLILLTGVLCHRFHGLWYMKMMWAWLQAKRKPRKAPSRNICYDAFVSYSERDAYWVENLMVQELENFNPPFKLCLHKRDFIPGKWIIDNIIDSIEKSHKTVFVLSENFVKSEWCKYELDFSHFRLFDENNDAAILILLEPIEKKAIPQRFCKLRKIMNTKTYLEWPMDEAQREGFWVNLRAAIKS

Procedure: As a control assay, normal Hek293 transfected with pNifty-Luc were used. […] Bright-Glo™ Luciferase assay buffer and substrate were supplied by Promega #E263B and #E264B (assay substrate and buffer respectively). 384 well clear-bottom plates were supplied by Greiner bio-one (#789163-G) and were custom bar-coded plates.
Cells were plated at 25,000 cells/well in 384-well plates in a final volume of 50 μl of media. Cells were allowed to adhere to the plates after overnight (18 hours) culture at 37° C. and 5% CO2. Serially diluted experimental and positive control compounds were then dispensed to each well and incubated for 7 hours at 37° C. and 5% CO2. Cells stimulated with DMSO alone also serve as negative controls. After the incubation, 30 μl of the pre-mix assay buffer and substrate buffer were added to each well according to manufacturer's instructions. The luminescence signal was read on a CLIPR machine with an integration time of 20 seconds per plate.

One may read the EC50 as the concentration at which the effect is half-maximal. For the molecule `CCCCCCCCCCCCCCCC(=O)N[C@@H](CSC[C@@H](COC(=O)NCCCCCCCCCC)OC(=O)NCCCCCCCCCC)C(=O)NCCOCCOCCOCCP(=O)(O)O` [Example 39, (14R,18R)-18-(decylcarbamoyloxy)-13,21-dioxo-14-palmitamido-3,6,9,20-tetraoxa-16-thia-12,22-diazadotriacontylphosphonic acid], the Emax was 92% and the EC50 came out at 2.64 µM.
Take `CCCCCCCCCCCCCCCC(=O)N[C@@H](CSC[C@@H](COC(=O)CCCCCCCCCCC)OC(=O)CCCCCCCCCCC)C(=O)NCCCOCCOCCOCCCNC(=O)CCC1OCCO1` [Example 40, (20R,24R)-1-(1,3-dioxolan-2-yl)-3,19-dioxo-20-palmitamido-8,11,14-trioxa-22-thia-4,18-diazapentacosane-24,25-diyl didodecanoate]: the Emax is 25% and it took 0.096 µM to reach a half-maximal effect (EC50).
For `CCCCCCCCCCCC(=O)OC[C@H](CSC[C@H](N)C(=O)NCCc1ccc(OCCOCCO)cc1)OC(=O)CCCCCCCCCCC` [Example 41, (R)-3-(((R)-2-amino-3-((4-(2-(2-hydroxyethoxy)ethoxy)phenethyl)amino)-3-oxopropyl)thio)propane-1,2-diyl didodecanoate], the Emax was found to be 61% and the EC50 was 15.3 µM.
As to `CCCCCCCCCCCC(=O)OC[C@H](CSC[C@H](N)C(=O)NCCCCCCCCCC(=O)O)OC(=O)CCCCCCCCCCC` [Example 42, 10-((R)-2-amino-3-(((R)-2,3-bis(dodecanoyloxy)propyl)thio)propanamido)decanoic acid], the Emax worked out at 101% and the midpoint of the response, the EC50, lay at 4.4 µM.
On the same counts, the results for `CCCCCCCCCCCC(=O)OC[C@H](CSC[C@H](N)C(=O)NC(C)(C)CO)OC(=O)CCCCCCCCCCC` [Example 43, (R)-3-(((R)-2-amino-3-((1-hydroxy-2-methylpropan-2-yl)amino)-3-oxopropyl)thio)propane-1,2-diyl didodecanoate] are 54% and 15.5 µM.
As for `CCCCCCCCCCCC(=O)OC[C@H](CSC[C@H](N)C(=O)NCCc1ccc(OCCC(C)C)cc1)OC(=O)CCCCCCCCCCC` [Example 44, (R)-3-(((R)-2-amino-3-((4-(isopentyloxy)phenethyl)amino)-3-oxopropyl)thio)propane-1,2-diyl didodecanoate], the Emax is 72% and the EC50 is 8.17 µM.
As to `CCCCCCCCCCCC(=O)OC[C@H](CSC[C@H](N)C(=O)NCCc1cccc(O)c1)OC(=O)CCCCCCCCCCC` [Example 49, (R)-3-(((R)-2-amino-3-((3-hydroxyphenethyl)amino)-3-oxopropyl)thio)propane-1,2-diyl didodecanoate], the Emax was 51% and the EC50 is more than 21 µM.
Consider `CCCCCCCCCCCC(=O)OC[C@H](CSC[C@H](N)C(=O)NCCOCCOCCN)OC(=O)CCCCCCCCCCC` [Example 54, (11R,15R)-1,11-diamino-10-oxo-3,6-dioxa-13-thia-9-azahexadecane-15,16-diyl didodecanoate], for which the Emax amounted to 101% and a half-maximal response (EC50) required 1.29 µM.
Turning to `CCCCCCCCCCCC(=O)OC[C@H](CSC[C@H](N)C(=O)NCCCCCCN)OC(=O)CCCCCCCCCCC` [Example 56, (R)-3-(((R)-2-amino-3-((6-aminohexyl)amino)-3-oxopropyl)thio)propane-1,2-diyl didodecanoate], the Emax is 107% and the EC50 is 1.22 µM.
Turning to `CCCCCCCCCCCC(=O)OC[C@H](CSC[C@H](N)C(=O)NCCCCN)OC(=O)CCCCCCCCCCC` [Example 57, (R)-3-(((R)-2-amino-3-((4-aminobutyl)amino)-3-oxopropyl)thio)propane-1,2-diyl didodecanoate], the Emax worked out at 111% and a half-maximal effect (EC50) was put at 1.04 µM.
For `CCCCCCCCCCCC(=O)OC[C@H](CSC[C@H](N)C(=O)NCCCN1CCOCC1)OC(=O)CCCCCCCCCCC` [Example 59, (R)-3-(((R)-2-amino-3-((3-morpholinopropyl)amino)-3-oxopropyl)thio)propane-1,2-diyl didodecanoate], the Emax was found to be 121% and the EC50 worked out at 0.71 µM.
With `CCCCCCCCCCCC(=O)OC[C@H](CSC[C@H](N)C(=O)NCCCn1ccnc1)OC(=O)CCCCCCCCCCC` [Example 60, (R)-3-(((R)-3-((3-(1H-imidazol-1-yl)propyl)amino)-2-amino-3-oxopropyl)thio)propane-1,2-diyl didodecanoate], the Emax amounted to 119% and the EC50 amounted to 0.41 µM.
Regarding `CCCCCCCCCCCC(=O)OC[C@H](CSC[C@H](N)C(=O)NC(CC)COC)OC(=O)CCCCCCCCCCC` (stereo partly drawn) [Example 63, (2R)-3-(((2R)-2-amino-3-((1-methoxybutan-2-yl)amino)-3-oxopropyl)thio)propane-1,2-diyl didodecanoate], the Emax amounted to 96% and the EC50 amounted to 0.0718 µM.
For the molecule `CCCCCCCCCCCC(=O)OC[C@H](CSC[C@H](N)C(=O)NCCCOCCOCCOCCCN)OC(=O)CCCCCCCCCCC` [Example 64, (16R,20R)-1,16-diamino-15-oxo-4,7,10-trioxa-18-thia-14-azahenicosane-20,21-diyl didodecanoate], the Emax worked out at 124% and it took 0.498 µM to reach a half-maximal effect (EC50).
Turning to `CCCCCCCCCCCC(=O)OC[C@H](CSC[C@H](N)C(=O)NC(Cc1ccccc1)c1ccccc1)OC(=O)CCCCCCCCCCC` (stereo partly drawn) [Example 67, (2R)-3-(((2R)-2-amino-3-((1,2-diphenylethyl)amino)-3-oxopropyl)thio)propane-1,2-diyl didodecanoate], the Emax was 64% and the midpoint of the response, the EC50, lay at 0.068 µM.
Consider `CCCCCCCCCCCC(=O)OC[C@H](CSC[C@H](N)C(=O)NCCc1ccc(Oc2ccccc2)cc1)OC(=O)CCCCCCCCCCC` [Example 68, (R)-3-(((R)-2-amino-3-oxo-3-((4-phenoxyphenethyl)amino)propyl)thio)propane-1,2-diyl didodecanoate], for which the Emax was 77% and the midpoint of the response, the EC50, lay at 4.08 µM.
On to `CCCCCCCCCCCC(=O)OC[C@H](CSC[C@H](N)C(=O)NC(C)CCCN(CC)CC)OC(=O)CCCCCCCCCCC` (stereo partly drawn) [Example 69, (2R)-3-(((2R)-2-amino-3-((5-(diethylamino)pentan-2-yl)amino)-3-oxopropyl)thio)propane-1,2-diyl didodecanoate], for which the Emax worked out at 118% and the midpoint of the response, the EC50, lay at 0.257 µM.
As to `CCCCCCCCCCCC(=O)OC[C@H](CSC[C@H](N)C(=O)NCCCC(C)(C)CO)OC(=O)CCCCCCCCCCC` [Example 72, (R)-3-(((R)-2-amino-3-((5-hydroxy-4,4-dimethylpentyl)amino)-3-oxopropyl)thio)propane-1,2-diyl didodecanoate], the Emax amounted to 49% and a half-maximal effect (EC50) was put at 30.7 µM.
Turning to `CCCCCCCCCCCC(=O)OC[C@H](CSC[C@H](N)C(=O)NC(C)CCC(C)C)OC(=O)CCCCCCCCCCC` (stereo partly drawn) [Example 74, (2R)-3-(((2R)-2-amino-3-((5-methylhexan-2-yl)amino)-3-oxopropyl)thio)propane-1,2-diyl didodecanoate], the Emax was 105% and the EC50 was determined as 0.19 µM.
On to `CCCCCCCCCCCCCCCC(=O)N[C@@H](CSC[C@@H](COC(=O)CCCCCCCCCCC)OC(=O)CCCCCCCCCCC)C(=O)N[C@@H](C)C(=O)N[C@H](CCC(=O)O)C(N)=O` [Example 75, (4R,7S,10R,14R)-4-carbamoyl-14-(dodecanoyloxy)-7-methyl-6,9,17-trioxo-10-palmitamido-16-oxa-12-thia-5,8-diazaoctacosan-1-oic acid], for which the Emax was 58% and the 50% effective concentration (EC50) came out at 0.96 µM.
Taken in the same sequence, the figures for `CCCCCCCCCCCCCCCCOC[C@H](CSC[C@H](N)C(=O)NCCOCCOCCOCCP(=O)(O)O)OCCCCCCCCCCCCCCCC` [Example 76, ((14R,18R)-14-amino-18-(hexadecyloxy)-13-oxo-3,6,9,20-tetraoxa-16-thia-12-azahexatriacontyl)phosphonic acid] were 109% and 3.45 µM.
On the same counts, the results for `CCCCCCCCCCCC(=O)OC[C@H](CSC[C@H](N)C(=O)NCCOCCOCCOCCOCCP(=O)(O)O)OC(=O)CCCCCCCCCCC` [Example 77, ((17R,21R)-17-amino-21-(dodecanoyloxy)-16,24-dioxo-3,6,9,12,23-pentaoxa-19-thia-15-azapentatriacontyl)phosphonic acid] are 100% and 0.038 µM.
For the molecule `CCCCCCCCCCCCOC[C@H](CSC[C@H](N)C(=O)NCCOCCOCCOCCOCCP(=O)(O)O)OCCCCCCCCCCCC` [Example 78, ((17R,21R)-17-amino-21-(dodecyloxy)-16-oxo-3,6,9,12,23-pentaoxa-19-thia-15-azapentatriacontyl)phosphonic acid], the Emax turned out to be 35% and the EC50 is 1.43 µM.
On to `CCCCCCCCCCCCOC[C@H](CSC[C@H](N)C(=O)NCCOCCOCCOCCOCCP(=O)(O)O)NC(=O)CCCCCCCCCCC` [Example 79, ((17R,21R)-17-amino-21-dodecanamido-16-oxo-3,6,9,12,23-pentaoxa-19-thia-15-azapentatriacontyl)phosphonic acid], for which the Emax was 20% and the EC50 was determined as 1.86 µM.
Consider `CCCCCCCCCCCCOC[C@H](CSC[C@H](N)C(=O)N[C@@H](CO)C(=O)NCCOCCOCCP(=O)(O)O)OCCCCCCCCCCCC` [Example 80, ((11S,14R,18R)-14-amino-18-(dodecyloxy)-11-(hydroxymethyl)-10,13-dioxo-3,6,20-trioxa-16-thia-9,12-diazadotriacontyl)phosphonic acid], for which the Emax is 52% and the EC50 turned out to be 1.91 µM.
Turning to `CCCCCCCCCCCCOC[C@H](CSC[C@H](N)C(=O)N[C@@H](CO)C(=O)NCCOCCOCCP(=O)(O)O)NC(=O)CCCCCCCCCCC` [Example 81, ((11S,14R,18R)-14-amino-18-dodecanamido-11-(hydroxymethyl)-10,13-dioxo-3,6,20-trioxa-16-thia-9,12-diazadotriacontyl)phosphonic acid], the Emax is 30% and the EC50 was found to be 1.97 µM.

Source of the values: patent US9365506B2, “Compounds and compositions as TLR2 agonists” (NOVARTIS AG, priority 2010, dated 2016).
